The source of these data is patent US4760062A, “Pharmaceutical compositions of N-heterocyclic benzenesulfonamides and their use” (DROPIC, Societe Civile de gestion de droits de Propriete …, priority 1983, dated 1988).

Series [1] relates to mice. In words: 4 plates test (suppressive conditioning), 25 mg/kg orally, increase in punished passages with respect to control. Format: in vivo, Swiss male mice. To be noted: Mus musculus, po, 1 h, male mice, 25 mg/kg single oral dose, 60 minutes before the test; read-out: % increase in the number of punished passages with respect to the control batch. An excerpt: The method is based on the attenuation or suppression of the anxiety state induced by electric shocks on movement of the animals (mice) into a special enclosure.
The anxiolytic effect is manifested by an increase in movements at doses not affecting motility.
For each dose, the groups are of 15 animals which have not undergone the test.
The apparatus was of the Apelex type.
It is composed of a parallelepipedic box of white plastic material, provided with a lid of transparent plexiglas, mobile by means of two hinges. The floor, which is rectangular, is constituted by four plates of conductive metal of which the distance between one another and the walls of the box is of 0.5 cm.
These plates are connected to an Apelex impulse generator. The potential difference when there is no impulse is, nil between two plates on a diagonal and is of 180 Volts between two adjacent plates. A trigger enables that a constant electrical current pulse be sent (of 0 to 2 milliamperes) for a selected time (from 0.1 to 5 seconds).
The operation is carried out in a silent area at constant temperature, the experimenter overlooking the box so that he can follow all the movements of the mice placed on one of the plates.
For each animal, the experiment is carried out according to the following modalities:
preliminary exploration of 15 seconds, without electric shock;
punished exploration (electric shock for each movement between two ajdacent plates) for 60 seconds.
The electric shocks have a duration of 0.5 seconds and an intensity of 0.6 milliampere.
The controls receive only carboxymethylcellulose.
The results are expressed as percentage of increase in the number of punished passages with respect to the control batch (increase percentage).

In series [2] the test system is mice. To be noted: mouse, in vivo.
A short description of series [3]: Acute toxicity (LD0, LD50, LD100). To be noted: mouse, in vivo.
In series [4] the test system is mice. In words: Acute toxicity (LD0, LD50, LD100). To be noted: for ratio between the effective dose and the toxicity: mouse, in vivo.

Like-named read-outs stand apart in the source and are kept apart here. Some results are limits rather than exact numbers.

Turning to `COc1cc([N+](=O)[O-])c(Cl)cc1S(=O)(=O)N1CCN(CCO)CC1` [Compound 1290], in the series on mice [1], the change in vivo at 25 mg/kg came to 17%.

Take `COc1cc(OC)c(S(=O)(=O)N2CCN(Cc3ccccc3)CC2)cc1S(C)(=O)=O` [Compound 1213]: the change in vivo at 25 mg/kg in the series with mice [1] was found to be 13%.

The LD50 is the dose at which mortality reaches 50%. High values mean lower toxicity, low ones greater toxicity. Take `COc1ccc(Cl)cc1S(=O)(=O)N1CCN(Cc2ccccc2)CC1` [Compound 1245]: the “ratio between the effective dose and the toxicity” value in the series with mice [2] is reported as “satisfactory”. Further, the LD50 in series [3] (ip) is over 2000 mg/kg. In the series with mice [4] (mice, route IP), the LD0 is on record as > 2 000 mg/kg and the LD100 is given as > 2 000 mg/kg.

For `O=S(=O)(c1cccc(C(F)(F)F)c1)N1CCN(CCO)CC1` [Compound 1505], the change in vivo at 25 mg/kg with mice [1] is 35%.

On to `COc1ccc(Br)cc1S(=O)(=O)N1CCN(c2ccc(F)cc2)CC1` [Compound 1299], for which the change in vivo at 25 mg/kg in the series on mice [1] worked out at 28%.

With `O=S(=O)(c1cccc(C(F)(F)F)c1)N1CCNCC1` [Compound 1504], the change in vivo at 25 mg/kg with mice [1] was 26%.

As to `O=C(c1ccco1)N1CCCN(S(=O)(=O)c2ccc(Cl)c(C(F)(F)F)c2)CC1` [Compound 1405], the change in vivo at 25 mg/kg in the series on mice [1] is 14%.

As to `COc1ccc(Cl)cc1S(=O)(=O)N1CCN(CCO)CC1` [Compound 1263], the change in vivo at 25 mg/kg with mice [1] is 10%.

As for `COc1cc(OC)c(S(=O)(=O)N2CCN(CCO)CC2)cc1S(C)(=O)=O` [Compound 1294], in the series with mice [1], the change in vivo at 25 mg/kg came out at 17%.

In turn, `COc1cc(OC)c(S(=O)(=O)N2CCN(CC(O)CO)CC2)cc1Cl` (centres unmarked) [Compound 1295] registered an LD50 in series [3] (ip) of 820 mg/kg. Further, in the series on mice [4] (mice, route IP), the LD0 came to 600 mg/kg and the LD100 was 1 000 mg/kg. For the same molecule, in the series with mice [4], the “ratio between the effective dose and the toxicity” value is given as “satisfactory”.

Take `O=C(c1ccco1)N1CCN(S(=O)(=O)c2cc(C(F)(F)F)cc(C(F)(F)F)c2)CC1` [Compound 1403]: the change in vivo at 25 mg/kg with mice [1] was 22%.

Regarding `O=S(=O)(c1cc(C(F)(F)F)cc(C(F)(F)F)c1)N1CCNCC1` [Compound 1400], in the series on mice [2], the “ratio between the effective dose and the toxicity” value is listed as “satisfactory”. This molecule showed an LD50 in series [3] of about 700 mg/kg. For the same molecule, in the series on mice [4] (route not given), the LD0 is reported as about 250 mg/kg.

With `COc1cc(OC)c(S(=O)(=O)N2CCNCC2)cc1OC` [Compound 1243], the change in vivo at 25 mg/kg in the series with mice [1] was 18%. Also, the “ratio between the effective dose and the toxicity” value in the series on mice [2] is “satisfactory”. This molecule had an LD50 in series [3] (iv) of 200 mg/kg. In the series on mice [4] (mice, route IV), this molecule came in with an LD0 of 200 mg/kg and an LD100 of 325 mg/kg.

Turning to `O=S(=O)(c1cc(C(F)(F)F)cc(C(F)(F)F)c1)N1CCCN(CC(O)CO)CC1` (centres unmarked) [Compound 1488, 4-(2.3-dihydroxypropyl)1-[(3,5-ditrifluoromethyl)benzenesulfonyl]homopiperazine], the change in vivo at 25 mg/kg in the series on mice [1] was 10%.

For `O=C(c1ccccc1)N1CCN(S(=O)(=O)c2cccc(C(F)(F)F)c2)CC1` [Compound 1502], in the series on mice [1], the change in vivo at 25 mg/kg was found to be 20%.

`O=C(c1ccccc1)N1CCCN(S(=O)(=O)c2ccc(Cl)c(C(F)(F)F)c2)CC1` [Compound 1393]: in the series on mice [2], the “ratio between the effective dose and the toxicity” value was “satisfactory”. In the series with mice [4] (by oral route), the LD0 is > 2 000 mg/kg.

`COc1cc([N+](=O)[O-])c(Cl)cc1S(=O)(=O)N1CCN(C)CC1` [Compound 1292]: the LD50 in series [3] (ip) came to 650 mg/kg. Further, in the series on mice [4] (mice, route IP), the LD0 came out at 400 mg/kg and the LD100 is 1 000 mg/kg. For the same molecule, in the series with mice [4], the “ratio between the effective dose and the toxicity” value was “satisfactory”.

Turning to `O=S(=O)(c1cccc(C(F)(F)F)c1)N1CCN(CCCO)CC1` [Compound 1500], the change in vivo at 25 mg/kg with mice [1] turned out to be 25%.

For the molecule `COc1cc(N)c(Cl)cc1S(=O)(=O)N1CCN(C)CC1` [Compound 1427, 1'1-[(4-amino 5-chloro 2-methoxy)benzenesulfonyl]4-methyl piperazine], the “ratio between the effective dose and the toxicity” value with mice [2] is on record as “satisfactory”. Further, the 50% lethal dose (LD50) in series [3] is about 800 mg/kg. In the series with mice [4] (route not given), this molecule showed an LD0 of about 500 mg/kg.

On to `O=S(=O)(c1cc(C(F)(F)F)cc(C(F)(F)F)c1)N1CCCNCC1` [Compound 1408], for which, in the series on mice [1], the change in vivo at 25 mg/kg came out at 22%.

Turning to `O=C(c1ccco1)N1CCN(S(=O)(=O)c2ccc(Cl)c(C(F)(F)F)c2)CC1` [Compound 1402], in the series with mice [2], the “ratio between the effective dose and the toxicity” value is reported as “satisfactory”. Moreover, the LD0 in the series on mice [4] (by oral route) was > 2 000 mg/kg.

Turning to `O=C(N1CCN(S(=O)(=O)c2cccc(C(F)(F)F)c2)CC1)C12CC3CC(CC(C3)C1)C2` [Compound 1503], the change in vivo at 25 mg/kg in the series with mice [1] stood at 28%.

With `COc1cc(OC)c(S(=O)(=O)N2CCN(c3ccc(F)cc3)CC2)cc1S(C)(=O)=O` [Compound 1298], the “ratio between the effective dose and the toxicity” value in the series on mice [2] was “satisfactory”. The 50% lethal dose (LD50) in series [3] (ip) is over 2000 mg/kg. Further, in the series with mice [4] (mice, route IP), the LD0 was > 2 000 mg/kg and the LD100 is on record as > 2 000 mg/kg.

Regarding `COc1cc(OC)c(S(=O)(=O)N2CCN(C)CC2)cc1OC` [Compound 1260], the change in vivo at 25 mg/kg in the series on mice [1] turned out to be 31%.

As to `O=C(N1CCN(S(=O)(=O)c2ccc(Cl)c(C(F)(F)F)c2)CC1)C12CC3CC(CC(C3)C1)C2` [Compound 1406], the change in vivo at 25 mg/kg in the series with mice [1] came out at 24%.
